Measurements from ChEMBL document CHEMBL1122946, “Folate antagonists. 21. Synthesis and antimalarial properties of 2,4-diamino-6-(benzylamino)pyrido[3,2-d]pyrimidines” (1985).

Legend:
Mus musculus [1] = test: Mean survival time against trophozoite induced Plasmodium berghei in mice minus control was evaluated at a dose 640 mg/kg; 5 toxic death occurred out of 5 animals on days 2-5 after injection.; type: functional, organism-based; parameters: dose 640 mg/kg
Mus musculus [2] = test: Mean survival time against trophozoite induced Plasmodium berghei in mice minus control was evaluated at a dose 160 mg/kg.; type: functional
Mus musculus [3] = test: Mean survival time against trophozoite induced Plasmodium berghei in mice minus control was evaluated at a dose 40 mg/kg.; type: functional
Mus musculus [4] = test: Mean survival time against trophozoite induced Plasmodium berghei in mice minus control was evaluated at a dose 160 mg/kg; 10 survived out of 10 animals at 60 days postinjection.; type: functional, organism-based; parameters: dose 160 mg/kg
Mus musculus [5] = test: Mean survival time against trophozoite induced Plasmodium berghei in mice minus control was evaluated at a dose 2.5 mg/kg.; type: functional
Mus musculus [6] = test: Mean survival time against trophozoite induced Plasmodium berghei in mice minus control was evaluated at a dose 1.25 mg/kg.; type: functional
Mus musculus [7] = test: Mean survival time against trophozoite induced Plasmodium berghei in mice minus control was evaluated at a dose 640 mg/kg; 10 survived out of 10 animals at 60 days postinjection.; type: functional, organism-based; parameters: dose 640 mg/kg
Mus musculus [8] = test: Mean survival time against trophozoite induced Plasmodium berghei in mice minus control was evaluated at a dose 10 mg/kg.; type: functional
Mus musculus [9] = test: Mean survival time against trophozoite induced Plasmodium berghei in mice minus control was evaluated at a dose 20 mg/kg; 4 survived out of 10 animals at 60 days postinjection.; type: functional, organism-based; parameters: dose 20 mg/kg
Mus musculus [10] = test: Mean survival time against trophozoite induced Plasmodium berghei in mice minus control was evaluated at a dose 80 mg/kg; 5 survived out of 5 animals at 60 days postinjection.; type: functional, organism-based; parameters: dose 80 mg/kg
Mus musculus [11] = test: Mean survival time against trophozoite induced Plasmodium berghei in mice minus control was evaluated at a dose 40 mg/kg; 6 survived out of 15 animals at 60 days postinjection.; type: functional, organism-based; parameters: dose 40 mg/kg
Mus musculus [12] = test: Mean survival time against trophozoite induced Plasmodium berghei in mice minus control was evaluated at a dose 5 mg/kg.; type: functional
Mus musculus [13] = test: Mean survival time against trophozoite induced Plasmodium berghei in mice minus control was evaluated at a dose 320 mg/kg; 5 survived out of 10 animals at 60 days postinjection.; type: functional, organism-based; parameters: dose 320 mg/kg
Mus musculus [14] = test: Mean survival time against trophozoite induced Plasmodium berghei in mice minus control was evaluated at a dose 80 mg/kg; type: functional
Mus musculus [15] = test: Mean survival time against trophozoite induced Plasmodium berghei in mice minus control was evaluated at a dose 160 mg/kg; 5 survived out of 5 animals at 60 days postinjection.; type: functional, organism-based; parameters: dose 160 mg/kg
Mus musculus [16] = test: Mean survival time against trophozoite induced Plasmodium berghei in mice minus control was evaluated at a dose 20 mg/kg.; type: functional
Mus musculus [17] = test: Mean survival time against trophozoite induced Plasmodium berghei in mice minus control was evaluated at a dose 320 mg/kg; 10 survived out of 10 animals at 60 days postinjection.; type: functional, organism-based; parameters: dose 320 mg/kg
Mus musculus [18] = test: Mean survival time against trophozoite induced Plasmodium berghei in mice minus control was evaluated at a dose 40 mg/kg; 10 survived out of 10 animals at 60 days postinjection.; type: functional, organism-based; parameters: dose 40 mg/kg
Mus musculus [19] = test: Mean survival time against trophozoite induced Plasmodium berghei in mice minus control was evaluated at a dose 320 mg/kg; 5 survived out of 5 animals at 60 days postinjection.; type: functional, organism-based; parameters: dose 320 mg/kg
Mus musculus [20] = test: Mean survival time against trophozoite induced Plasmodium berghei in mice minus control was evaluated at a dose 20 mg/kg; 8 survived out of 10 animals at 60 days postinjection.; type: functional, organism-based; parameters: dose 20 mg/kg
Mus musculus [21] = test: Mean survival time against trophozoite induced Plasmodium berghei in mice minus control was evaluated at a dose 320 mg/kg; 3 toxic death occurred out of 5 animals on days 2-5 after injection; type: functional, organism-based; parameters: dose 320 mg/kg
Mus musculus [22] = test: Mean survival time against trophozoite induced Plasmodium berghei in mice minus control was evaluated at a dose 40 mg/kg; 4 survived out of 10 animals at 60 days postinjection; type: functional, organism-based; parameters: dose 40 mg/kg
Mus musculus [23] = test: Mean survival time against trophozoite induced Plasmodium berghei in mice minus control was evaluated at a dose 80 mg/kg; 5 survived out of 5 animals at 60 days postinjection; type: functional, organism-based; parameters: dose 80 mg/kg
Mus musculus [24] = test: Mean survival time against trophozoite induced Plasmodium berghei in mice minus control was evaluated at a dose 160 mg/kg; 2 toxic death occurred out of 10 animals on days 2-5 after injection; type: functional, organism-based; parameters: dose 160 mg/kg
Mus musculus [25] = test: Mean survival time against trophozoite induced Plasmodium berghei in mice minus control was evaluated at a dose 640 mg/kg; 10 toxic death occurred out of 10 animals on days 2-5 after injection; type: functional, organism-based; parameters: dose 640 mg/kg
Mus musculus [26] = test: Mean survival time against trophozoite induced Plasmodium berghei in mice minus control was evaluated at a dose 640 mg/kg; 5 survived out of 5 animals at 60 days postinjection.; type: functional, organism-based; parameters: dose 640 mg/kg
Mus musculus [27] = test: Mean survival time against trophozoite induced Plasmodium berghei in mice minus control was evaluated at a dose 80 mg/kg; 10 survived out of 10 animals at 60 days postinjection.; type: functional, organism-based; parameters: dose 80 mg/kg
Mus musculus [28] = test: Mean survival time against trophozoite induced Plasmodium berghei in mice minus control was evaluated at a dose 40 mg/kg; 15 survived out of 15 animals at 60 days postinjection.; type: functional, organism-based; parameters: dose 40 mg/kg
Mus musculus [29] = test: Mean survival time against trophozoite induced Plasmodium berghei in mice minus control was evaluated at a dose 20 mg/kg; 8 survived out of 15 animals at 60 days postinjection.; type: functional, organism-based; parameters: dose 20 mg/kg
Mus musculus [30] = test: Mean survival time against trophozoite induced Plasmodium berghei in mice minus control was evaluated at a dose 80 mg/kg; 1 survived out of 5 animals at 60 days postinjection; type: functional, organism-based; parameters: dose 80 mg/kg
Mus musculus [31] = test: Mean survival time against trophozoite induced Plasmodium berghei in mice minus control was evaluated at a dose 640 mg/kg; 9 survived out of 15 animals at 60 days postinjection.; type: functional, organism-based; parameters: dose 640 mg/kg
Mus musculus [32] = test: Mean survival time against trophozoite induced Plasmodium berghei in mice minus control was evaluated at a dose 320 mg/kg; 3 survived out of 5 animals at 60 days postinjection; type: functional, organism-based; parameters: dose 320 mg/kg
Mus musculus [33] = test: Mean survival time against trophozoite induced Plasmodium berghei in mice minus control was evaluated at a dose 160 mg/kg; 6 survived out of 15 animals at 60 days postinjection; type: functional, organism-based; parameters: dose 160 mg/kg
Mus musculus [34] = test: Mean survival time against trophozoite induced Plasmodium berghei in mice minus control was evaluated at a dose 40 mg/kg; 4 survived out of 10 animals at 60 days postinjection.; type: functional, organism-based; parameters: dose 40 mg/kg
Mus musculus [35] = test: Mean survival time against trophozoite induced Plasmodium berghei in mice minus control was evaluated at a dose 640 mg/kg; 7 survived out of 10 animals at 60 days postinjection.; type: functional, organism-based; parameters: dose 640 mg/kg
Mus musculus [36] = test: Mean survival time against trophozoite induced Plasmodium berghei in mice minus control was evaluated at a dose 160 mg/kg; 4 survived out of 10 animals at 60 days postinjection.; type: functional, organism-based; parameters: dose 160 mg/kg
Mus musculus [37] = test: Mean survival time against trophozoite induced Plasmodium berghei in mice minus control was evaluated at a dose 80 mg/kg.; type: functional
Mus musculus [38] = test: Mean survival time against trophozoite induced Plasmodium berghei in mice minus control was evaluated at a dose 320 mg/kg; 2 survived out of 5 animals at 60 days postinjection.; type: functional, organism-based; parameters: dose 320 mg/kg

For Nc1nc(N)c2nc(N3CCCCC3)ccc2n1, the “Delta MST” value (Mus musculus [1]) was “Toxic Deaths 5/5”, the “Delta MST” value (Mus musculus [2]) was 0.4 days and the “Delta MST” value (Mus musculus [3]) was 0.3 days.

With Nc1nc(N)c2nc(N(C=O)Cc3ccc(Cl)c(Cl)c3)ccc2n1 the “Delta MST” value (Mus musculus [4]) was “Survivals 10/10”, the “Delta MST” value (Mus musculus [5]) was 5.3 days and the “Delta MST” value (Mus musculus [6]) was 1.9 days. For the same molecule, the “Delta MST” value (Mus musculus [7]) was “Survivals 10/10”, the “Delta MST” value (Mus musculus [8]) was 16.3 days and the “Delta MST” value (Mus musculus [9]) was “Survivals 4/10”. The “Delta MST” value (Mus musculus [10]) was “Survivals 5/5”, the “Delta MST” value (Mus musculus [11]) was “Survivals 6/15” and the “Delta MST” value (Mus musculus [12]) was 14.1 days. For the same molecule, the “Delta MST” value (Mus musculus [13]) was “Survivals 5/10”.

For Nc1nc(N)c2nc(N3CCCCC3Cc3ccccc3)ccc2n1 (centres undefined), the “Delta MST” value (Mus musculus [14]) was 8.2 days, the “Delta MST” value (Mus musculus [3]) was 4.9 days and the “Delta MST” value (Mus musculus [15]) was “Survivals 5/5”. The “Delta MST” value (Mus musculus [16]) was 3 days and the “Delta MST” value (Mus musculus [17]) was “Survivals 10/10”.

With CN(Cc1ccc(Cl)c(Cl)c1)c1ccc2nc(N)nc(N)c2n1 the “Delta MST” value (Mus musculus [18]) was “Survivals 10/10”, the “Delta MST” value (Mus musculus [5]) was 4.3 days and the “Delta MST” value (Mus musculus [6]) was 2.9 days. For the same molecule, the “Delta MST” value (Mus musculus [8]) was 11.9 days, the “Delta MST” value (Mus musculus [19]) was “Survivals 5/5” and the “Delta MST” value (Mus musculus [10]) was “Survivals 5/5”. The “Delta MST” value (Mus musculus [12]) was 9.1 days, the “Delta MST” value (Mus musculus [15]) was “Survivals 5/5” and the “Delta MST” value (Mus musculus [20]) was “Survivals 8/10”.

In the case of CCN(Cc1ccccc1)c1ccc2nc(N)nc(N)c2n1, the “Delta MST” value (Mus musculus [21]) is reported as “Toxic Deaths 3/5”, the “Delta MST” value (Mus musculus [22]) is reported as “Survivals 4/10” and the “Delta MST” value (Mus musculus [23]) is reported as “Survivals 5/5”. The “Delta MST” value (Mus musculus [24]) was “Toxic Deaths 2/10”, the “Delta MST” value (Mus musculus [25]) was “Toxic Deaths 10/10” and the “Delta MST” value (Mus musculus [16]) was 9.7 days.

For CN(Cc1ccc(Cl)c(Cl)c1)c1ccc2nc(N)nc(N)c2c1, the “Delta MST” value (Mus musculus [4]) was “Survivals 10/10”, the “Delta MST” value (Mus musculus [26]) was “Survivals 5/5” and the “Delta MST” value (Mus musculus [8]) was 8.7 days. The “Delta MST” value (Mus musculus [27]) was “Survivals 10/10”, the “Delta MST” value (Mus musculus [28]) was “Survivals 15/15” and the “Delta MST” value (Mus musculus [17]) was “Survivals 10/10”. The “Delta MST” value (Mus musculus [29]) was “Survivals 8/15”.

In the case of CN(Cc1cccc(Br)c1)c1ccc2nc(N)nc(N)c2n1, the “Delta MST” value (Mus musculus [30]) is reported as “Survivals 1/5”, the “Delta MST” value (Mus musculus [31]) is reported as “Survivals 9/15” and the “Delta MST” value (Mus musculus [3]) is reported as 9.8 days. For the same molecule, the “Delta MST” value (Mus musculus [32]) was “Survivals 3/5”, the “Delta MST” value (Mus musculus [16]) was 9.1 days and the “Delta MST” value (Mus musculus [33]) was “Survivals 6/15”.

With Nc1nc(N)c2cc(N(C=O)Cc3ccc(Cl)c(Cl)c3)ccc2n1 the “Delta MST” value (Mus musculus [4]) was “Survivals 10/10”, the “Delta MST” value (Mus musculus [26]) was “Survivals 5/5” and the “Delta MST” value (Mus musculus [8]) was 4.3 days. For the same molecule, the “Delta MST” value (Mus musculus [27]) was “Survivals 10/10”, the “Delta MST” value (Mus musculus [16]) was 8.2 days and the “Delta MST” value (Mus musculus [17]) was “Survivals 10/10”. The “Delta MST” value (Mus musculus [34]) was “Survivals 4/10”.

For Nc1nc(N)c2nc(N3CCCCC3Cc3ccc(Cl)cc3)ccc2n1 (centres undefined), the “Delta MST” value (Mus musculus [35]) was “Survivals 7/10”, the “Delta MST” value (Mus musculus [36]) was “Survivals 4/10” and the “Delta MST” value (Mus musculus [3]) was 5.1 days. For the same molecule, the “Delta MST” value (Mus musculus [16]) was 2.9 days, the “Delta MST” value (Mus musculus [37]) was 9.1 days and the “Delta MST” value (Mus musculus [38]) was “Survivals 2/5”.
